Reference: a melting point compilation (Tetko et al.; mined from patent text by program, amines drawn as free bases though some values may be those of a salt)

| SMILES | melting point [°C] |
| --- | --- |
| Cc1c(C)c2c(c(C)c1NC(=O)CCC(F)(F)F)C(c1ccc(C(C)C)cc1)CO2 (stereo not given) | 206 to 207 |
| CCOC(=O)c1ccc(C(OC(c2ccc(C(=O)OCC)cc2)c2ccc3c(c2)C(C)(C)CCC3(C)C)c2ccc3c(c2)C(C)(C)CCC3(C)C)cc1 (stereo not given) | 109 to 111 |
| Cc1nccn1CC1CCc2c(c3ccccc3n2C)/C1=N/O (stereo not given) | 231 to 233 |
| COC(=O)CCCCCCCCCCCO | 33.5 to 35 |
| O=C1Nc2ccc(Cl)cc2C(c2ccccc2)=N[C@@H]1Cc1ccccc1 | 154 to 157 |
| N#CC1=C2C=CC=c3ccccc3=C2CC=C1 | 109 to 111 |
| CCOC(=O)C(=CNc1cccc(C#N)c1)C(=O)OCC | 109 to 111 |
| Cc1c[nH]c2c1C(=O)CC(c1ccccc1F)C2 (stereo not given) | 198 to 200 |
| CC(C)(C)c1ccc(SN2CCOC2=O)cc1 | 76 to 81 |
| COc1ccc2c(c1)sc1c(C(=O)Nc3nnn[nH]3)cnc(=O)n12 | 234 to 235 |
| CC1Cc2ccc(Br)cc2C(c2ccc([N+](=O)[O-])cc2)=NN1 (stereo not given) | 125 to 130 |
| CC(C)(C)OC(=O)CN(C(=O)CN1C(=O)c2ccccc2C1=O)c1ccccc1C(=O)N1CCCc2ccccc21 | 150 |
| O=C1Nc2ccc3sccc3c2C1=O | 200 to 201 |
| NC(=O)C(O)(C(N)=O)c1ccccc1 | 159 |
| Cc1oc(-c2ccc(F)cc2)nc1CO | 153 to 155 |
| CCCCCCCCCCCCCCCCCNC(=O)OCCOCCOC(=O)N(Cc1ccccn1)C(C)=O | 60 to 61 |
| CCc1cc(C=Cc2nc3ccccc3o2)c(=O)[nH]c1C | 262 to 264 |
| Cn1nc(N)c(C(N)=O)c1N | 213 to 215 |
| Clc1cccc2c(CN3CC=C(/C=C/c4ccccc4)CC3)n[nH]c12 | 223 to 224 |
| Cc1nc(-c2ccc(OC(C)C)c([N+](=O)[O-])c2)sc1C(=O)OC(C)C | 91 to 92 |

| SMILES | melting point [°C] |
| --- | --- |
| CCCCP(=O)(C(=O)c1c(C)cc(C)cc1C)C(=O)c1c(OC)cccc1OC (stereo not given) | 94 to 96 |
| O=C(Nc1cccc(S(=O)(=O)Nc2ccccc2)c1)c1cnn2c(C(F)(F)F)cc(-c3ccc(C(F)(F)F)cc3)nc12 | 258 |
| Clc1cc(Cl)cc(C=C2CCC3(CC2)OCCO3)c1 | 66 |
| O=C1C(=O)N2CCOc3cccc1c32 | 188 |
| Cc1ccc(S(=O)(=O)NC(COS(=O)(=O)c2ccc(C)cc2)Cc2ccccc2)cc1 (stereo not given) | 95 to 96 |
| CC(Br)C(=O)NS(=O)(=O)c1ccc2c(c1)CC(C)(C)O2 (stereo not given) | 125 to 128 |
| CCCOc1ccccc1-c1nc2ncncc2c(=O)[nH]1 | 142 to 143 |
| COc1ccc(C(=O)Nc2ccc(N3CCC(NC[C@H](O)COc4cccc5[nH]c6ccccc6c45)CC3)cc2)cc1OC | 183 to 191 |
| COc1ccc(-n2c(=O)oc3ccc(-c4ccc(F)cc4F)cc3c2=O)cc1OC | 198 to 199 |
| CCCCCCCN(C[C@H]1CCCC[C@H]1CN(CCCCCCC)C(=O)Nc1ccc(N(C)C)cc1)C(=O)Nc1ccc(N(C)C)cc1 | 135 to 138 |
| NC(=O)C1CCc2[nH]c3ccc(Cl)cc3c2C1 (stereo not given) | 247 to 248 |
| O=[N+]([O-])c1ccc(CCN2CCN(c3cc(Cl)nnc3Cl)CC2)c([N+](=O)[O-])c1 | 145 to 146 |
| CC(Oc1c(C(=O)O)cc(Cl)cc1[N+](=O)[O-])C(=O)O (stereo not given) | 190 |
| Cc1ccccc1OS(=O)(=O)c1ccc(N2CCN(C)C2=O)cc1 | 157 to 158 |
| CCOc1cc2cc3ncc(C#N)c(Nc4cc(OC)c(Cl)cc4C)c3cc2cc1OCCN1CCOCC1 | 195 to 196 |
| CCc1ncc2n1N=C(c1ccc(N)cc1)c1cc3c(cc1C2)OCO3 | 135 to 138 |
| CC1(C)Oc2ccc(C=O)cc2C(N2CCCC2=O)C1O (stereo not given) | 196 to 198 |
| CCOC(=O)CN1C(=O)CN2CC(=O)NN=C21 | 188 to 193 |
| Cc1c(C)c2c(c(C)c1Br)OCC2c1ccc(C(C)C)cc1 (stereo not given) | 56 to 57 |
| CCCCOc1c(CNC(=O)OC(C)(C)C)n(CC2CC2)c(=O)c2ccc(C(N)=O)cc12 | 202 to 203 |

| SMILES | melting point [°C] |
| --- | --- |
| CC1(C)OCCN1C(=O)C=Cc1ccc(F)cc1 | 106 to 108 |
| O=C1c2cccc3c(Cl)ccc(c23)C(=O)N1CCN1CCC(c2noc3cc(F)ccc23)CC1 | 207 to 209 |
| CNc1nc(-c2cccc(-c3cncc(SC)c3)c2)c2cc(OC)c(OC)cc2n1 | 184 to 186 |
| O=C(NC1CN2CCC1CC2)c1cccc2oc(-c3ccccc3)nc12 (stereo not given) | 77 to 80 |
| Clc1cccc2c1nnn2C1CCCCC1 | 141 to 144 |
| COc1cc(CCNC(C)=O)c(C(=O)Cc2cc(OC)c(OC)cc2[N+](=O)[O-])cc1OC | 142 to 144 |
| CCCCCCCCCCCCCCCCCCOc1cc(N)cc(OCc2ccccc2)c1 | 57 to 59 |
| N#Cc1cc(Br)c(O)c(Cc2cc(F)cc(Cc3cc(C#N)cc(Br)c3O)c2O)c1 | 240 |
| Cc1c(Cl)n(C)n(C)c1=O | 37 to 38 |
| CCCC1=C(C(=O)OCC)C(c2cccc3c2OCCC3)c2c[nH]nc2N1 (stereo not given) | 159 to 161 |
| CCOC(=O)/C=C(C)/C(F)=C/C=C(C)/C=C/c1c(C)sc(C)c1C | 73 to 75 |
| CCCCCCCCCCCCC(Oc1ccc(NS(=O)(=O)CCCC)cc1)C(=O)O (stereo not given) | 80 to 82 |
| CN(C)c1ccc(CC(=O)N2CCC(c3[nH]nc4c3C(=O)c3c(NC(=O)NN5CCOCC5)cccc3-4)CC2)cc1 | 107 to 109 |
| CN(C)c1nnc(-c2nnc(SCCC(F)=C(F)F)o2)o1 | 87 to 90 |
| CC(C)(C)OC(=O)n1cc2c(c1C=O)OCCO2 | 94 to 95 |
| [N-]=[N+]=Nc1nc(N=[N+]=[N-])nc(-c2ccccc2)n1 | 130 to 132 |
| Cn1c(C(=O)N2CCC[C@@H]3CCCC[C@H]32)cc2ccccc21 (relative stereo) | 87 to 90 |
| CCC(C)(C)N=C(NC#N)Nc1cc(Cl)cc(Cl)c1 | 151 to 153 |
| CCN(CCCCCC(C)O)C(=O)CCC(=O)c1ccc(NS(C)(=O)=O)cc1 (stereo not given) | 78 to 80 |

The next lines start with the values.

| melting point [°C] | SMILES |
| --- | --- |
| 53 to 55 | CC1OC(COc2ccc(Cl)cc2)OC1=O (stereo not given) |
| 105 to 107 | CC[C@H](c1ccc(C(F)(F)F)cc1)N(Cc1ccc(C(=O)O)cc1)S(=O)(=O)c1ccc(Cl)cc1 |
| 91 to 93 | O=C(NCCc1ccc(Cl)cc1)c1ncccc1O |
| 72.5 | CCOC(=O)c1ccc(NO)cc1 |
| 133 | COc1ccccc1C(=O)NCCc1ccc(-c2ccc(OC(C)(C)C(=O)O)cc2)cc1 |
| 130 to 132 | CC(=O)c1noc2cc(OCc3cccc(C(F)(F)F)c3)ccc12 |
| 95 to 97 | CCCc1c(OCC(=O)NCCCCc2cccnc2)ccc(C(C)=O)c1O |
| 298 to 300 | COc1cccc2c1C(=O)c1cccc3cc(O)cc-2c13 |
| 226 to 227 | COC(=O)[C@H](Cc1c(Br)n(Cc2ccccc2)c2cc(Br)c(OC)c(Br)c12)NC(C)=O |
| < 50 | CC=Cc1cccc2c1OC(c1ccccc1)CC2=O (stereo not given) |
| 60 to 61 | CCOC(=O)CC(C)N=c1sc2ccc(Cl)cc2s1 (stereo not given) |
| 183 to 184 | COc1c(Cl)ccc(C(=O)O)c1F |
| 125 to 130 | O=C(OCc1ccccc1O)c1cc(O)c2c(c1)C(=O)c1cccc(O)c1C2=O |
| 148 to 152 | O=C(CCCOc1cc(-c2ccccc2)ccc1O)NO |
| 93 to 94 | c1ccc(N2c3ccccc3Sc3ccccc32)cc1 |
| 145 to 147 | Cc1cccc(C(=O)n2nc(Nc3cccc(OCC(=O)NCCN4CCOCC4)c3)nc2N)c1 |
| 167 to 169 | CC(=O)Nc1c(C(=O)c2ccc3ccccc3c2)[nH]c2cc(Cl)ccc12 |
| 96 to 98 | OCCc1coc(-c2ccc3ccccc3c2)n1 |
| 100 to 102 | CC(Cl)c1ccc(-c2ccc(Cl)cc2)cc1 (stereo not given) |
| 86 to 87 | c1csc(-c2nc(COc3ccc(CCCn4ccnc4)cn3)co2)c1 |
| 75 | O=C(NC(=NCCCOc1ccccc1)Oc1ccccc1)c1ccccc1 |

| melting point [°C] | SMILES |
| --- | --- |
| 214 to 216 | O=C(NCCCCCn1ccnc1)c1cc2cc(Cl)ccc2[nH]1 |
| 173 to 175 | CCOC(=O)c1nc2cc(-c3ccccc3)sc2nc1N |
| 144 to 146 | COC(=O)c1ccc(Oc2ccc(N)cc2C(=O)OC)cc1 |
| 182 to 184 | CN(C)Cc1ccc(NC(=O)C2=Cc3cc(-c4ccccc4)ccc3CC2)cc1 |
| 90 to 93 | O=C(Nc1ccccc1)c1ccc([N+](=O)[O-])cc1 |
| 180 to 181 | CCc1nc2c(N)nc3ccccc3c2n1CCCCNC(=O)Nc1ccccc1 |
| 139 to 141 | CCOc1c(C(C)=O)cnc2c1cnn2Cc1ccco1 |
| 194 | CNC(=O)c1cccc(NC(=O)Cc2csc3ccccc23)c1 |
| 150 to 151 | CCCNc1cc(C(=O)OCC)cc(S(N)(=O)=O)c1Oc1ccccc1 |
| 183 to 185 | Cc1ncncc1C(=O)Nc1ccc(-n2nc(C(F)(F)F)c(Cl)c2C2CC2)c(F)c1 |
| 158 to 159 | Cc1nnc(-c2ccc3ncn(C4CCN(C(=O)c5ccccc5)CC4)c3c2)o1 |
| 109 | CCN(CC)CCNC(=O)c1ccccc1NC(=O)COc1ccc(Cl)cc1 |
| 118 to 120 | CC(C)=CCN1CCc2c(sc(N)c2C(=O)c2ccc(Cl)cc2)C1 |
| 181 to 183 | CCc1oc2ccccc2c1C(=O)NCc1ccc2c(Br)c(OCC#N)ccc2c1 |
| 188 | O=C1NCCc2c(-c3cccc(CCO)c3)[nH]c3cccc1c23 |
| 250 to 252 | CC(C)n1nc(-c2sc(NC(=O)Cc3ccccc3)nc2-c2ccccc2)ccc1=O |
| 113 | CNC(=O)c1snc(-c2cccc(C(F)(F)F)c2)c1N |
| 161 to 162 | CC(C)(CO)COc1c(-c2ccc(S(C)(=O)=O)cc2)cnn(-c2ccc(F)c(F)c2)c1=O |
| 198 to 202 | CN(C)c1ccc2c(c1)N(CCCN1CCC(C(=O)O)CC1)c1ccccc1CC2 |
| 141 | Cc1ccc(CCCO)c(NCc2ccc3nc(NCCCN4CCOCC4)n(Cc4cccc(Br)n4)c3c2)c1 |
